Laboratory results from patent publication US10100011B2, “Pentadienoyl piperidine derivative and use thereof” (Industry-Academic Cooperation Foundation, Yonsei University, priority 2014, dated 2018).

Experiments:
C57BL/6J mice [1] = assay: Body weight and visceral fat weight in mice fed high-fat diet; format: in vivo, mouse; settings: about 0.05% compound in high-fat diet, 10 weeks
Experimental: (§1) An obesity induction diet used in this experiment was a high-fat diet (HFD: 40% fat calories, 17 g of lard+3% corn oil/100 g diet), and the compositions of diets including the LJ-2501, LJ-2488, LJ-2495, LJ-2496 compounds were identical to that of HFD, except that each of the compounds was included in an amount of about 0.05% (Table 2). As a control drug, an anti-obesity drug, sibutramine (Sibut), was added in an amount of about 0.01% to the high-fat diet and a normal diet group (Chow) was fed with commercial rodent chow.
(§2) 5-week old 40 male C57BL/6J mice (Orient Bio., Korea) were fed with hard feed and accommodated in a laboratory environment for one week. Subsequently, in accordance with a randomized block method, the mice were randomly grouped into a normal diet group, a high-fat diet control group, two experimental substance groups, and […] and raised for a total of 10 weeks (n=8/group). Diets were supplied with water between 10 am and 11 am every day. An intake amount was measured every day and the body weights of the mice were measured every week. To prevent temporal weight change due to feed intake, feedboxes were removed and, after two hours, the body weights were measured. The experimental animals were fasted for 12 hours or more and then anesthetized with diethyl ether, followed by collecting blood, liver, and visceral adipose tissues (epididymal fat, perirenal fat, mesenteric fat, and retroperitoneal fat). The collected samples were washed with 0.1 M phosphate buffered saline (pH 7.4) and then weighed. Blood samples collected from abdominal aortas were centrifuged at 1000×g for 15 minutes, thereby separating plasma.

[2] = target: T1, human recombinant SIRT1 enzyme (Homo sapiens, UniProt Q96EB6); assay: SIRT1 activity measurement (SIRT1 Fluorometric Drug Discovery Kit); format: biochemical
T1 construct: purchased ENZO Life Sciences Inc., NY, USA BML-AK555
T1 sequence (Q96EB6 1-747): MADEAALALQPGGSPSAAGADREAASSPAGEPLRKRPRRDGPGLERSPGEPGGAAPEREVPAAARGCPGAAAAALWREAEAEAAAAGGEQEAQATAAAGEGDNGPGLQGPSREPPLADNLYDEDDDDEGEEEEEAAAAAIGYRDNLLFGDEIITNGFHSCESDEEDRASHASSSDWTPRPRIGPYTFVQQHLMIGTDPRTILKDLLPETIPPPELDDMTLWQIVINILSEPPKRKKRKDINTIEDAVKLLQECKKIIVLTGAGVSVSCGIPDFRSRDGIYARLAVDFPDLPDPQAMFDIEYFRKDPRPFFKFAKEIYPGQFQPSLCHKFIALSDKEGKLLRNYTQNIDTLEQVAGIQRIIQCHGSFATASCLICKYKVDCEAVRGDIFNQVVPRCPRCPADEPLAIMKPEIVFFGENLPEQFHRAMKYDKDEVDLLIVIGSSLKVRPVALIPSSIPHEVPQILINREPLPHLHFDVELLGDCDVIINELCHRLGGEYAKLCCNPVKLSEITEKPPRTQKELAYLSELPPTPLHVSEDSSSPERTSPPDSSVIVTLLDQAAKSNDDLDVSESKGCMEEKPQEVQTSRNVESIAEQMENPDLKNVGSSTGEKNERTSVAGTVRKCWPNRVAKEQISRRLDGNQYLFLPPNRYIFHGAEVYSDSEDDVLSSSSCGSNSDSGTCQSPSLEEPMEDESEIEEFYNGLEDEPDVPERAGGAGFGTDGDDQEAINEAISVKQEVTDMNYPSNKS
Experimental: To analyze SIRT1 activity in a test tube, a deacetylation degree of acetylated lysine included in a substrate was measured using an SIRT1 Fluorometric Drug Discovery Kit (BML-AK555, ENZO Life Sciences Inc., NY, USA). 0.067 U/μl of a human recombinant SIRT1 enzyme and a test substance were mixed in a 96-well plate and reacted at 37° C. for 10 minutes. Subsequently, 167 μM substrate [379th to 382nd amino acid peptide of human p53, Arg-His-Lys-Lys(Ac)] and 1667 μM NAD^+ were added thereto, followed by reacting at 37° C. for 30 minutes. To stop the reaction of SIRT1, 50 μL of a developer including 2 mM nicotinamide was added, followed by reacting at 37° C. for 30 minutes. Chromophoric fluorescence intensity was measured at 360 nm excitation and 460 nm emission.

3T3L1 cells = assay: Adipocyte differentiation inhibition in preadipocytes (Oil-red O staining); format: cell-based, mouse; settings: Mus musculus, 3T3-L1, treated every two days during 14 days differentiation, Oil-red O O.D. 600 nm, read-out: adipocyte differentiation inhibition activity, EC50 value
Experimental: Preadipocytes, 3T3L1 cells, were aliquoted into a 12-well plate and cultured in a DMEM medium containing 1% penicillin-streptomycin, 1% nonessential amino acid, and 10% fetal bovine serum (FBS) in a 5% CO2 incubator at 37° C. until confluence. The 3T3L1 cells grown to confluence were cultured for two days in a medium containing 0.5 mM isobutyl-methylxanthine, 1 μM dexamethasone (MDI), and 1 μg/ml insulin, thereby being differentiated into adipocytes. Subsequently, the differentiated adipocytes were further cultured for two days in a DMEM medium including 1 μg/ml insulin, thereby being differentiated into mature adipocytes. Subsequently, the differentiated mature adipocytes were further cultured for 10 days while replacing a used DMEM medium with a new DMEM medium every two days. As a result, completely differentiated adipocytes were formed.
3T3-L1 cells were treated with each of a total of four novel compound types at different concentrations every two days from the first day of cell differentiation induction by addition of DMI. Each of the derivative compounds was dissolved in DMSO and then used. A negative control group including only DMSO was included in this experiment. Cell culture was carried out for 14 days. When differentiation was completed, a medium was removed and lipid droplets contained in differentiated adipocytes were stained. To stain the lipid droplets, cells were washed with phosphate buffered saline (PBS) twice and then fixed with 10% buffered neutral formalin for one hour, followed by washing with PBS once. Subsequently, 1 ml of Oil-red-O dye for staining lipid droplets red was fed into a 12-well plate and lipid droplets were stained for one hour, followed by washing with distilled water twice. To measure the concentration of neutral fat contained in the differentiated 3T3L1 cells, the stained lipid droplets were dissolved in 1 ml of isobutanol, followed by measuring an O.D value at 600 nm.

C57BL/6J mice [3] = assay: Plasma lipid concentrations in mice fed high-fat diet; format: in vivo, mouse; settings: about 0.05% compound in high-fat diet, 10 weeks
Experimental: as §1, §2
Using the aforementioned experimental animals raised for 10 weeks, the concentrations of a total of cholesterol, neutral fat, and glucose in plasma and lipid components in liver tissue were measured as follows. The concentrations of a total of cholesterol, neutral fat, and free fatty acid in plasma were respectively measured twice using a commercial measurement kit (Bio Clinical System).

SMILES: CSc1ccc(/C=C/C=C/C(=O)N2CCCCC2)cc1 [LJ-2501, (2E,4E)-5-(4-(methylthio)phenyl)-1-(piperine-1-yl)penta-2,4-diene-1-one]
- cumulative weight gain, reduction compared to high-fat diet control group (HFD) (C57BL/6J mice [1]): 60%
- diet intake amount compared to HFD control group (C57BL/6J mice [1]): not greatly different
- epididymal fat, perirenal fat, mesenteric fat and retroperitoneal fat weights compared to HFD (in words) (C57BL/6J mice [1]): significant reduction
- total weight of visceral fats (four fat types), reduction compared to HFD (C57BL/6J mice [1]): 72%
- visceral fat amount in abdominal section image compared to HFD (naked eye) (C57BL/6J mice [1]): remarkably reduced
- Vmax value of SIRT1 ([2]; in presence of 600 μM compound): without change
- concentration at which SIRT1 activity was highest ([2]; increasing concentration of compound, human recombinant SIRT1): 600 µM
- EC50 (3T3L1 cells): 101 µM
- plasma LDL+VLDL cholesterol concentration, reduction compared to HFD (C57BL/6J mice [3]): 27%
- plasma free fatty acid concentration, reduction compared to HFD (C57BL/6J mice [3]): 69%
- plasma neutral fat concentration, reduction compared to HFD (C57BL/6J mice [3]): 34%
- plasma total cholesterol concentration, reduction compared to HFD (C57BL/6J mice [3]): 35%
